# Results: patent US20250295792A1, “POLYETHYLENE GLYCOL-MODIFIED FORM OF KININ OR DERIVATIVE THEREOF AND PHARMACEUTICAL USE THEREOF” (ZonHon Biopharma Institute, Inc., priority 2022, published 2025)
# Like-named read-outs stand apart in the source and are kept apart here. Where a SMILES comes first, the peptide text is derived from it. Where no end group is shown, it is not given here. [ ]: non-standard residue; d: D form. M‑SPA‑5K = straight-chain monomethoxy PEG succinimidyl propionate, about 5 kDa; 2Thi = N[C@@H](Cc1cccs1)C(=O)O
# Legend:
# [1] = Stability in SD rat serum system in vitro (UPLC-RP)
# Description: Assess the stability of lysyl bradykinin/bradykinin by evaluating its stability in serum system in vitro. 2 mg/ml peptide and SD rat serum were mixed at volume ratio of 85:15, incubated at 37° C. for 30 min, 60 min, 90 min, 120 min, 180 min, etc, terminate by adding 3% trichloroacetic acid (50% volume of the above mixture system with peptide and serum) and effectively remove matrix interference in the serum. Further monitor the degradation of peptide samples in the serum system to evaluate its stability basing on UPLC-RP-UV214 nm method. RP analysis method: Protein BEH C4 2.1×150 mm as chromatographic column, 1.7 μm, column temperature 30° C., mobile phase A: 0.1% TFA/H2O, mobile phase B: 0.1% TFA/ACN, gradient: 0-5 min, 5% B; 5-10 min, 5-40% B; 10-30 min, 40-60% B; 30-32 min, 60-100% B; 32 to 35 min, 5% B.
# The stability of PEG conjugates of lysyl bradykinin and its variants was indirectly evaluated by evaluating their stability in serum system in vitro, as determined in Example 2.
# [2] = system: middle cerebral artery occlusion (MCAO) cerebral ischemia-reperfusion model; assay: MCAO cerebral ischemia-reperfusion model: neurological deficit score and cerebral infarct size; assay type: in vivo, SD rats; details: for Neurological deficit symptoms compared with the model group (in words): Example 7, FIG. 7a; for Neurological deficit symptoms compared with the model group (in words) / Cerebral infarct size compared with the model group (in words): intravenous, Edaravone 6 mg/kg, conjugate 3 mg/kg; for Cerebral infarct size compared with the model group (in words): Example 7, FIG. 7b
# Description: SD rats, male, SPF grade, weighing 270-300 g. The middle cerebral artery occlusion (MCAO) of cerebral ischemia-reperfusion model was prepared by using the intraluminal suture method in rats. Animals were anesthetized with gas (isoflurane), and then fixed them in a supine position. The skin was disinfected, and the right common carotid artery, external carotid artery, and internal carotid artery were separated from the midline incision in the neck. The vagus nerve was gently peeled off, and the external carotid artery was ligated and cut. The common carotid artery was clamped near the proximal end, and an incision was made from the distal end of the ligature line of the external carotid artery. The suture (model 2438-A5, purchased from Beijing Xinong Technology Co., LTD.) was inserted and passed through the bifurcation of the common carotid artery into the internal carotid artery. The suture was then slowly inserted until slight resistance was encountered (about 20 mm from the bifurcation), blocking the blood supply to the middle cerebral artery. The neck skin was sutured, disinfected, and the rat was returned to the cage. After 90 minutes of ischemia, the rat was anesthetized again, fixed on the rat board, and the neck skin was cut open to find the suture, which was gently removed. Reperfusion was performed, and the neck skin was sutured, disinfected, and the rat was returned to the cage for feeding.
# The rats were divided into sham operation group, model group (administered PBS intravenously), Edaravone group (administered intravenously, 6 mg/kg), and PEG conjugate of lysyl bradykinin group (administered intravenously, 3 mg/kg). The rats were injected once after 2 hours of reperfusion.
# The modified Bederson method was used to evaluate neurological defect symptoms.
# Animals were anesthetized with 10% chloral hydrate, the brain tissue was removed, the olfactory bulbs, cerebellum and lower brainstem were removed, and the bloodstain on brain surface was washed with […]. After removing surface residual water, the brain tissue was placed at −80° C. for 7 minutes, took out and cut into coronal sections perpendicular to the visual cross plane, and sliced at intervals of 2 mm to the posterior direction. The brain slices were placed in fresh TTC (20 g/L) dye solution prepared with SPSS at 37° C. for 90 minutes. Normal brain tissue was stained deep red, while ischemic brain tissue appeared pale. After washing with SPSS, the brain slices were quickly arranged in sequence from front to back, residual water on the surface was absorbed, and photographed. The image analysis software (Image Tool) was used to delineate the ischemic area (white area) and the right side area on the photos for statistical analysis. The percentage of cerebral infarction area was calculated using the following formula:
# Cerebral infarction area (%)=100×total ischemic area/total right hemisphere area.
# Except for Table 7-6, the dosage of the other groups was 3 mg/kg (all the dosage was calculated based on peptides). The administration methods included intravenous injection and subcutaneous injection, and the injection was given once after 2 hours of reperfusion.
# Based on the same model, the effect of PEG conjugate of lysyl bradykinin variant was investigated by both intravenous and subcutaneous injection at dose of […] (the dose was calculated based on polypeptide). […]
# [3] = system: p-CREB and p-ERK1/2, B2 receptor downstream signals; assay: Western blot of p-ERK1/2 and p-CREB in CHO-K1 cells overexpressing B2 receptor; assay type: cell-based; details: FIG. 5
# Description: (§1) In vitro B2-receptor affinity activity and activity of activating downstream signaling pathway of PEG conjugates of lysyl bradykinin and its variants were tested, as in Example 3.
# B2 receptor = molecular target: T1, B2 receptor (Homo sapiens, UniProt P30411); assay: B2 receptor reporter gene assay in B2-NFAT-CHO-K1 cells; assay type: cell-based; details: Table 3-1; relative activity calculated from EC50, wild type Lys-BK = 100%
# T1 construct: expressed in transfected cells; host or cells: CHO-K1
# T1 sequence (P30411 1-391): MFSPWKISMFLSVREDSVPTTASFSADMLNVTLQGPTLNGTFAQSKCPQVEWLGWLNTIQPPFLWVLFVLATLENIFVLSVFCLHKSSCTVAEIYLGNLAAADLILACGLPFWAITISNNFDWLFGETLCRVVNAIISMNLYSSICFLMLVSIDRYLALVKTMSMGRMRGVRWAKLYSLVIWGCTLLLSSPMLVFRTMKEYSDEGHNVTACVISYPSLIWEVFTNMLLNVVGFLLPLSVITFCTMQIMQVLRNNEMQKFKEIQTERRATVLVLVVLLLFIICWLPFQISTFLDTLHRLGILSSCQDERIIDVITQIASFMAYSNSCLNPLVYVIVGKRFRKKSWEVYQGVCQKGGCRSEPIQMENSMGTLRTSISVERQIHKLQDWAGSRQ
# Excerpt: The pharmacological action of lysyl bradykinin/bradykinin in vivo is achieved by binding to B2 receptors and activating downstream signaling pathways
# The cell line B2-NFAT-CHO-K1 stably transfected with B2 receptor reporter gene was constructed based on CHO-K1 host cells and the cell library was constructed. The B2-NFAT-CHO-K1 cell library was used to evaluate the binding activity of lysyl bradykinin/bradykinin or its variants or PEG modified products to B2 receptor in vitro.
# Detection methods: The cells were cultured in 96-well plates at 5×10^4 cells/well, 37° C., 5% CO2 for 16-20 hours, and then gradient diluted standard and test solutions were added. After 5 hours, added Bio-Lite luciferase detection reagent and the chemiluminescence intensity was measured. GraphPad was used to make four-parameter equation curve and calculate the relative activity according to the EC50 value.
# as §1
# [4] = subcutaneous 30 mg in adults; cited from earlier work
# [5] = Table 2-1, 2 mg/ml peptide : SD rat serum 85:15 v/v, 37° C., sampled 30-180 min
compound,measurement,setting,value
N=C(N)NCCC[C@H](NC(=O)[C@H](Cc1ccccc1)NC(=O)[C@@H]1CCCN1C(=O)[C@H](CO)NC(=O)[C@H](Cc1cccs1)NC(=O)CNC(=O)[C@@H]1CCCN1C(=O)[C@@H]1CCCN1C(=O)[C@H](CCCNC(=N)N)NC(=O)[C@H](CCCNC(=N)N)NC(=O)[C@@H](N)CCCCN)C(=O)O [Lys-BKm11] (H-KRRPPG[2Thi]SPFR-OH; N-terminus and C-terminus assumed),Residual time in serum system,[1]; [5],60~90 min
Lys-BK-SPA5K: wild-type Lys-BK N-terminally single-modified with straight-chain M-SPA-5K PEG (about 5 kDa),Neurological deficit symptoms compared with the model group (in words),[2],significant improvement in neurological deficit symptoms
same,Cerebral infarct size compared with the model group (in words),[2],significant improvement in cerebral infarction area
same,Neurological deficit symptom score,"[2]; Table 6-1, intravenous 3 mg/kg once 2 h after reperfusion, Mean ± SE, model group 3.13 ± 0.09",2.38 ± 0.15
same,Cerebral infarct size (%),"[2]; Table 6-2, intravenous 3 mg/kg, Mean ± SE, model group 48.50 ± 1.66",34.84 ± 2.90 %
same,Neurological deficit symptom score,"[2]; Table 7-1, intravenous injection 3 mg/kg, model group 2.69 ± 0.12",2.13 ± 0.18
same,Cerebral infarct size (%),"[2]; Table 7-1, intravenous injection 3 mg/kg, model group 38.73 ± 1.99",24.73 ± 3.15 %
same,Neurological deficit symptom score,"[2]; Table 9-1, oral administration once 6 mg/kg, model group 2.12 ± 0.17",1.60 ± 0.17
same,Cerebral infarct size (%),"[2]; Table 9-1, oral administration once 6 mg/kg, model group 29.23 ± 4.32",22.82 ± 2.56%
same,Residual time in serum system,[1],>6 h
"CC1=NN(c2ccccc2)C(=O)C1 [Edaravone, reference compound]",Neurological deficit symptoms compared with the model group (in words),[2],significant improvement in neurological deficit symptoms
same,Cerebral infarct size compared with the model group (in words),[2],significant improvement in cerebral infarct size
same,Neurological deficit symptom score,"[2]; Table 6-1, intravenous 6 mg/kg once 2 h after reperfusion, Mean ± SE, model group 3.13 ± 0.09",2.40 ± 0.13
same,Cerebral infarct size (%),"[2]; Table 6-2, intravenous 6 mg/kg, Mean ± SE, model group 48.50 ± 1.66",34.12 ± 2.35 %
Lys-BKm13-SPA5K: Lys-BKm13 N-terminally single-modified with M-SPA-5K PEG ({M‑SPA‑5K}-CRRPPG[2Thi]SPFR),Neurological deficit symptoms and cerebral infarction area compared with the model group (in words),"[2]; Example 9, intravenous and subcutaneous injection 4.5 mg/kg",significant improvement in neurological deficit symptoms and cerebral infarction area
same,Neurological deficit symptom score,"[2]; Table 7-4, intravenous injection 3 mg/kg, model group 3.00 ± 0.10",2.13 ± 0.15
same,Cerebral infarct size (%),"[2]; Table 7-4, intravenous injection 3 mg/kg, model group 38.79 ± 2.01",23.54 ± 1.99 %
same,Neurological deficit symptom score,"[2]; Table 7-6, subcutaneous injection 4.5 mg/kg, model group 3.00 ± 0.09",2.69 ± 0.12
same,Cerebral infarct size (%),"[2]; Table 7-6, subcutaneous injection 4.5 mg/kg, model group 41.40 ± 1.83",36.07 ± 2.47%
same,Neurological deficit symptom score,"[2]; Table 8-1, intravenous injection 4.5 mg/kg, model group 2.80 ± 0.11",2.19 ± 0.16
same,Cerebral infarct size (%),"[2]; Table 8-1, intravenous injection 4.5 mg/kg, model group 38.45 ± 2.16",25.16 ± 2.36 %
same,Neurological deficit symptom score,"[2]; Table 8-1, subcutaneous injection 4.5 mg/kg, model group 2.80 ± 0.11",2.25 ± 0.17
same,Cerebral infarct size (%),"[2]; Table 8-1, subcutaneous injection 4.5 mg/kg, model group 38.45 ± 2.16",26.06 ± 2.69 %
same,"Activity of activating phosphorylation of ERK1/2 and CREB, PEG conjugates (in words)",[3],highest activity among different peptide variants
"Lys-BKm08: variant peptide PG{THI}SPFR, SEQ ID NO 9 (PG[2Thi]SPFR)",Relative affinity activity,B2 receptor,<10%
N=C(N)NCCC[C@H](NC(=O)[C@H](Cc1ccccc1)NC(=O)[C@@H]1CCCN1C(=O)[C@H](CO)NC(=O)[C@H](Cc1cccs1)NC(=O)CNC(=O)[C@@H]1CCCN1C(=O)[C@@H]1CCCN1C(=O)[C@H](CCCNC(=N)N)NC(=O)[C@H](CCCNC(=N)N)NC(=O)[C@H](CCCNC(=N)N)NC(=O)[C@@H](N)CS)C(=O)O [Lys-BKm16] (H-CRRRPPG[2Thi]SPFR-OH; N-terminus and C-terminus assumed),Residual time in serum system,[1]; [5],60~90 min
"Lys-BKm09: variant peptide {THI}SPFR, SEQ ID NO 10 ([2Thi]SPFR)",Relative affinity activity,B2 receptor,0%
NC(N)=NCCC[C@@H](N)C(=O)N[C@@H](CCCN=C(N)N)C(=O)N1CCC[C@H]1C(=O)N1C[C@H](O)C[C@H]1C(=O)NCC(=O)N[C@@H](Cc1cccs1)C(=O)N[C@@H](CO)C(=O)N1Cc2ccccc2C[C@@H]1C(=O)N1[C@H](C(=O)N[C@@H](CCCN=C(N)N)C(=O)O)C[C@@H]2CCCC[C@@H]21 [icatibant],peak blood concentration,[4],405 ng/mL
same,time to peak blood concentration,[4],1.79 h
"Lys-BKm10: variant peptide SPFR, SEQ ID NO 11",Relative affinity activity,B2 receptor,0%
N=C(N)NCCC[C@H](NC(=O)[C@H](Cc1ccccc1)NC(=O)[C@@H]1CCCN1C(=O)[C@H](CO)NC(=O)[C@H](Cc1cccs1)NC(=O)CNC(=O)[C@@H]1CCCN1C(=O)[C@@H]1CCCN1C(=O)[C@H](CCCNC(=N)N)NC(=O)[C@H](CCCCN)NC(=O)[C@H](CCCNC(=N)N)NC(=O)[C@H](Cc1ccccc1)NC(=O)[C@@H]1CCCN1C(=O)[C@H](CO)NC(=O)[C@H](Cc1cccs1)NC(=O)CNC(=O)[C@@H]1CCCN1C(=O)[C@@H]1CCCN1C(=O)[C@H](CCCNC(=N)N)NC(=O)[C@@H](N)CCCCN)C(=O)O [Lys-BKm14] (H-KRPPG[2Thi]SPFRKRPPG[2Thi]SPFR-OH; N-terminus and C-terminus assumed),Residual time in serum system,[1]; [5],1.5 to 2 h
